Experimental data: paper PMC6043372 (Journal of medicinal chemistry, 2018)
Like-named read-outs stand apart in the source and are kept apart here.

Test system: Mtb H37Rv
Assay type: cell-based, Mycobacterium tuberculosis H37Rv

In the case of `CCCCCCCCn1cc(CN2CCC3(CC2)OCCCO3)c2ccc(OC)cc21` [Compound 12], the “spontaneous resistance mutation frequency” value is reported as 10^−8 /CFU.
For `CCCCCCCCn1cc(CN2CCCCCC2)c2c(F)cccc21` [Compound 71, 3-(azepan-1-ylmethyl)-4-fluoro-1-octyl-1H indole], the “spontaneous resistance mutation frequency” value (Mtb H37Rv, 12 at 4× and 8× MIC90) was < 10^−9 /CFU.
